In brackets after ≈: the same amount, converted by molar mass.

The subject of the assay is Mycobacterium tuberculosis. Briefly: Antimycobacterial activity against isoniazid-resistant Mycobacterium tuberculosis H37Rv ATCC 27294 using alamar blue staining by broth microdilution assay. The assay is classed as functional. Background: The colour change of resazurin is a common sign of viable cells or microbes.
As usually defined, the MIC is the least concentration at which growth counts as inhibited. For `Cc1cc(C2=NN(c3ccccc3)C(c3ccc(F)cc3)C2)ccc1O` (configuration not stated), inhibition of growth (MIC) required 0.62 µg/mL (≈ 1.79 µM).

In the case of `NNC(=O)c1ccncc1` [ISONIAZID], the minimal inhibitory concentration (MIC) is 0.63 µg/mL (≈ 4.59 µM).

Molecule `COc1ccc(C2CC(c3ccc(O)c(C)c3)=NN2c2ccccc2)cc1OC` (configuration not stated) returned a minimum inhibitory concentration (MIC) of 1.16 µg/mL (≈ 2.99 µM). Compared with the last molecule, the MIC is about 1.8-fold higher.

Molecule `Cc1cc(C2=NN(c3ccccc3)C(c3ccc(N(C)C)cc3)C2)ccc1O` (configuration not stated) came in with an MIC of 0.84 µg/mL (≈ 2.26 µM).

Regarding `Cc1cc(C2=NN(c3ccccc3)C(c3ccccc3)C2)ccc1O` (configuration not stated), 1.6 µg/mL (≈ 4.87 µM) was the least that counted as inhibitory (MIC).

Turning to `Cc1cc(C2=NN(c3ccccc3)C(c3ccccc3Cl)C2)ccc1O` (configuration not stated), inhibition of growth (MIC) required 1 µg/mL (≈ 2.76 µM).

For the molecule `Cc1cc(C2=NN(c3ccccc3)C(c3ccc(Cl)cc3)C2)ccc1O` (configuration not stated), the MIC was 1.24 µg/mL (≈ 3.42 µM).

Molecule `Cc1cc(C2=NN(c3ccccc3)C(c3c(Cl)cccc3Cl)C2)ccc1O` (configuration not stated) returned an MIC of 0.92 µg/mL (≈ 2.32 µM). This MIC and that of the molecule before are within 1.5-fold of each other.

Molecule `Cc1cc(C2=NN(c3ccccc3)C(c3cccc([N+](=O)[O-])c3)C2)ccc1O` (configuration not stated) displayed a minimal inhibitory concentration (MIC) of 1.96 µg/mL (≈ 5.25 µM).

As for `COc1ccc(C2CC(c3ccc(O)c(C)c3)=NN2c2ccccc2)cc1` (configuration not stated), the minimum inhibitory concentration (MIC) is 1.45 µg/mL (≈ 4.05 µM).

As to `COc1cc(C2CC(c3ccc(O)c(C)c3)=NN2c2ccccc2)cc(OC)c1OC` (configuration not stated), it took 1.86 µg/mL (≈ 4.44 µM) to inhibit growth (MIC).

`Cc1cc(C2=NN(c3ccccc3)C(c3ccco3)C2)ccc1O` (configuration not stated): it took 0.81 µg/mL (≈ 2.54 µM) to inhibit growth (MIC).

The record behind these values is ChEMBL document CHEMBL3045115, “Synthesis and antimycobacterial activity of novel 4-[5-(substituted phenyl)-1-phenyl-4,5-dihydro-1H-3-pyrazolyl]-2-methylphenol derivatives” (2006).
